{"source": "patent US20200023080A1", "about": "“COMPOSITIONS AND METHOD FOR THE TREATMENT AND DETECTION OF COLON CANCER” (priority 2015, published 2020)", "key": {"[1]": {"target": "T1, GC-C expressed on T84 cells (Homo sapiens, UniProt P25092)", "T1 construct": "endogenous in cells; host or cells: T84 human colon carcinoma cells", "T1 sequence (P25092 24-1073)": "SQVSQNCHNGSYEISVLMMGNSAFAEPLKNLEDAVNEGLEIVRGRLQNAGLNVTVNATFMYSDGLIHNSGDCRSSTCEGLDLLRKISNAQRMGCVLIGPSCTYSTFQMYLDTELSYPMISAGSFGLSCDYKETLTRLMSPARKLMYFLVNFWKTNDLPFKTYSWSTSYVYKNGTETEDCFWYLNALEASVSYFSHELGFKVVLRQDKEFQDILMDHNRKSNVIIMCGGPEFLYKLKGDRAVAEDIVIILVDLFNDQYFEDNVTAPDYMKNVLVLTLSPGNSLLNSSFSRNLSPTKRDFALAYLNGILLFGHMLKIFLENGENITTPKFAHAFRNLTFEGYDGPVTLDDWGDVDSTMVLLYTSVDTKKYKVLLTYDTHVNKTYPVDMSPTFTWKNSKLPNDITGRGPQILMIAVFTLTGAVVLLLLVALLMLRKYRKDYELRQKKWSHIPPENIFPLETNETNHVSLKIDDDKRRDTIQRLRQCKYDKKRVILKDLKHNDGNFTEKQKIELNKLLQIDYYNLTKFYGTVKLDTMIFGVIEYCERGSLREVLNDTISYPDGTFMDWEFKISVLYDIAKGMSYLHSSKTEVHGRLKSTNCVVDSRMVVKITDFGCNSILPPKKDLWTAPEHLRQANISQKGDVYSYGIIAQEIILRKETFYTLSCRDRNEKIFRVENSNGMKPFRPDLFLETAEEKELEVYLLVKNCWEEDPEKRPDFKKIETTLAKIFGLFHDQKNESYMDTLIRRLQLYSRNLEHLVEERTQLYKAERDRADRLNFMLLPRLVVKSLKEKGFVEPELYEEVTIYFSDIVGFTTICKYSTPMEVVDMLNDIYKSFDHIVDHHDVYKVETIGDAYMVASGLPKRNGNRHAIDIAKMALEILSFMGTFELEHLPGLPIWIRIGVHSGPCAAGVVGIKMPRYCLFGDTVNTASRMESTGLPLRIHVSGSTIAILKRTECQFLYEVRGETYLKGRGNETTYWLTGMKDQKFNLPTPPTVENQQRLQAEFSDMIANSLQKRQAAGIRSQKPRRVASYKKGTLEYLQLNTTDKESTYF", "assay": "Binding of IR680-SP-333 probe to T84 cell monolayer", "settings": "4° C. for 1 hour, FIG. 3", "experimental": "Experiments were performed to establish binding conditions to reduce background and to enhance specific binding. These experiments concluded that the age of T84 monolayer should be between 7-9 days after seeding to allow maximum expression of GC-C on the cell surface. Next, we established the optimal binding buffer, incubation time to allow binding of probe to T84 cells and temperature of binding incubation to minimize endocytosis. The optimal conditions for specific binding of probe to T84 cells are briefly described here. Human T84 cells were grown to confluence in 96 black clear bottom plates. Media was aspirated and the plate was blocked with 200 ul/well of blocking buffer (DMEM/F12+150 mM NaCl+20 mM Sodium phosphate dibasic, pH was adjusted to 6.0 with 1N HCl) for 2 hours in cell culture incubator at 37° C."}, "[2]": {"target": "T2, GC-C binding sites on T84 cells (Homo sapiens, UniProt P25092)", "T2 construct": "endogenous in cells; host or cells: T84 human colon carcinoma cells", "T2 sequence (P25092 24-1073)": "as above", "assay": "Binding of IR680-SP-333 probe to suspension of T84 cells", "settings": "0.5 μM probe, 4° C. for 30 mins, FIG. 4", "experimental": "Next, we performed binding of probe to suspension of T84 cells. In this set of experiments, cells cultured for 9 days in T75 flasks were harvested by scraping and suspended in pre-chilled binding media. Different densities of cells were incubated with […] IR680-SP-333 (final concentration 0.5 μM) in pre-chilled binding buffer at 4° C. for 30 mins. The IR680-SP-333 was diluted with unlabeled SP-333 to adjust the final concentration of probe 0.5 μM. This dilution was necessary to saturate the available GC-C binding sites on 40,000 cells."}, "[3]": {"system": "cGMP production in T84 cells", "assay": "T84 cGMP bioassay", "type": "cell-based, Human", "settings": "FIG. 6"}, "[4]": {"system": "colonic adenomas in Apc^+/Min-FCCC mice", "assay": "Ex-vivo imaging of excised colons incubated with probe (IVIS Spectrum)", "settings": "0.1 μM probe; for signal / ability to detect polyps in older mice: 4 and 6 month old mice", "experimental": "Ex-vivo and in vivo studies have been performed to evaluate the specificity of the IR680-SP-333 probe for colonic adenomas in Apc^+/Min-FCCC mice. IR680-SP-333 was prepared in DMEM/F-12 media containing 20 mM sodium phosphate buffer and 3% BSA, pH6; the same media used for in vitro experiments. Based on data from an initial pilot study, incubation of tissue with 0.1 μM IR680-SP-333 for 30 min at 37° C. was selected as the optimal condition for ex-vivo studies. Epifluorescence images were acquired as follows: excitation wavelength=640 nm, detection wavelength=700 nm, exposure time=auto-3 min, F-stop=1, binning=1 (“small” setting), field of view=0.3 cm (setting “C”). […] To eliminate the contribution of the age of mouse to the observed heterogeneity in probe binding, an in depth imaging study was performed in mice of various ages (2, 3, 4, 5 and 6 months). In this ex-vivo study, mice were euthanized and colons excised, opened longitudinally, and washed with PBS. Colon tissues were incubated with 0.1 μM IR680-SP-333 at 37° C. for 30 min. After incubation, the tissues were washed with PBS (4 times) and imaged in the IVIS Spectrum, using the settings described above. Careful review of the resulting images lead to three major conclusions: 1) the binding of the IR680-SP-333 probe to colorectal polyps is size dependent. […] 2) because the signal varied with polyp size, binding was enhanced in mice 2-3 months of age where the majority of colorectal polyps were smaller (≤3 mm in diameter) (FIG. 7). As the mice aged, the colorectal polyps increased in size and the ability of probe to detect the polyps decreased (FIG. 8). […] Because the incidence of colorectal polyps is higher in mice 3 months (70%) vs. 2 months (45%) of age, a decision was made to use mice 10-12 weeks of age for all subsequent in vivo IR680-SP-333 analyses to minimize the number of animal that needed to be screened for tumors. 3) signal of the IR680-SP-333 probe was high at the proximal and distal ends of the colon even in the absence of polyps. Similar nonspecific binding of unknown origin has been observed in previous experiments with independent probes at these same extreme regions."}, "[5]": {"system": "colon polyps in Apc^+/Min-FCCC mice", "assay": "In vivo gavage of probe, imaging of excised colon and histopathology", "experimental": "Following the ex-vivo binding studies, an experiment was performed to assess the ability of the probe to remain intact as it passed through the GI tract and bind to colonic lesions. In this in vivo experiment, Apc^+/Min-FCCC mice (10-12 wks of age) were subjected to a colonoscopic examination prior to probe administration, according to a protocol established previously (Hensley, Gastrointestinal Endoscopy group). Mice with confirmed colon polyps were randomized to receive IR680-SP-333 at 0.5 or 0.05 mg/kg body weight by gavage. Prior to probe administration, mice were fasted overnight and provided Pedialyte ad libitum for bowel cleansing. Mice were gavaged with IR680-SP-333 and euthanized at 30, 60, 90 and 120 min post treatment. At the time of euthanasia, the colon was excised, opened its entire length and rinsed with saline. Each colon was then placed on a plastic ruler and imaged in an IVIS Spectrum system using the settings described above for the ex-vivo experiments. Immediately following image acquisition, the entire colon was placed intact on a plastic ruler in 10% normal buffered formalin and areas positive and negative for probe signal were collected for histopathological evaluation. […] Evaluation of additional doses of IR680-SP-333 probe (0.0158 and 0.158 mg/kg body weight) confirmed that gavaging mice with IR680-SP-333 at 0.05 mg/kg body weight and imaging 30 min post treatment yielded the greatest differential in signal between the non-neoplastic and neoplastic colonic mucosa.\nColon tissues with strong signal (tumor) and corresponding background signal (nonneoplastic control) were processed for histopathology evaluation and reviewed bin a blinded manner. […] This heterogeneity made it impossible to standardize the epi-fluorescence scale and classify positive and negative signals based solely on the epi-fluorescence value. […] In FIG. 12 (mouse ID 12201), strong signal is localized to a hyperplastic polyp (HP); an area of high proliferation; providing additional support for the lack of correlation between the intensity of the probe signal and size/type of colonic lesion. […] The probe IR-680-SP-333 may also be useful in detection of colorectal metastasis in liver and other organs."}, "GC-C receptor": {"target": "GC-C receptor (Homo sapiens, UniProt P25092)", "sequence (P25092 24-1073)": "as above", "settings": "cited from earlier work"}}, "note": "Positions of bridges follow the written chain, without caps; N, C: chain ends. Non-standard residues stand in square brackets, D forms with d. No end group written: not given here. IRDye‑680LT = infrared dye IRDye-680LT, conjugated via NHS ester"}
{"substance": "IR680-SP-333: SP-333 labeled at the amine group with IRDye-680LT NHS ester; bioactive infrared fluorescence probe ({IRDye‑680LT}-[dN]DECELCVNVACTGC[dL]; disulfide 4-12, 7-15)", "values": [{"measurement": "binding of probe in the presence of 100-fold excess of unlabeled SP-333", "setting": "[1]", "value": "considerably reduced"}, {"measurement": "binding of probe to T84 cells (fluorescence ex680, em715)", "setting": "[1]", "value": "specifically bound to GC-C expressed on T84 cells in a dose-dependent manner"}, {"measurement": "binding of probe to cell suspension in the presence of 100-fold excess of SP-333", "setting": "[2]", "value": "abolished"}, {"measurement": "ability to stimulate cGMP production in T84 cells", "setting": "[3]", "value": "active"}, {"measurement": "level of cGMP production compared to unconjugated SP-333", "setting": "[3]", "value": "slightly lower level"}, {"measurement": "signal at the proximal and distal ends of the colon in the absence of polyps", "setting": "[4]; 30 min", "value": "high"}, {"measurement": "signal / ability to detect polyps in older mice", "setting": "[4]; 30 min, FIG. 8", "value": "decreased"}, {"measurement": "signal / ability to detect polyps in older mice", "setting": "[4]; 30 min, FIG. 8, listed as SP-333-IR680", "value": "weaker than that observed in younger animals"}, {"measurement": "binding in mice 2-3 months of age", "setting": "[4]; 30 min, polyps mostly ≤3 mm, FIG. 7", "value": "enhanced"}, {"measurement": "binding to colorectal polyps versus surrounding normal colonic mucosa", "setting": "[4]; 30 min at 37° C.", "value": "greater binding to colorectal polyps than to the surrounding normal colonic mucosa"}, {"measurement": "binding to every colorectal polyp", "setting": "[4]; 30 min at 37° C.", "value": "did not bind to every colorectal polyp"}, {"measurement": "probe signal by polyp size", "setting": "[4]; 30 min at 37° C., FIG. 7", "value": "higher in polyps ≤3 mm in diameter than in those with a diameter >4 mm"}, {"measurement": "differential between signal of colorectal polyps and background of adjacent normal colonic mucosa", "setting": "[5]; gavage 0.05 mg/kg body weight, imaged 30 min post treatment, FIG. 9A", "value": "best differential"}, {"measurement": "nonspecific signal at proximal and distal ends of colon", "setting": "[5]; gavage 0.5 mg/kg body weight, FIG. 9B", "value": "increased significantly"}, {"measurement": "differential between tumor and normal tissue at higher dose", "setting": "[5]; gavage 0.5 mg/kg body weight, FIG. 9B, 0.5 mg/kg", "value": "failed to improve the difference in signal between neoplastic and nonneoplastic mucosa significantly"}, {"measurement": "differential between tumor and normal tissue at higher dose", "setting": "[5]; gavage 0.5 mg/kg body weight, FIG. 9B, listed as SP-333-IR680, 0.5 mg/kg", "value": "failed to improve the differential between tumor and normal tissue"}, {"measurement": "nonspecific binding at longer interval between dosing and imaging", "setting": "[5]; gavage, ≥90 min between dosing and imaging, FIG. 9C", "value": "increase in nonspecific binding"}, {"measurement": "correlation of probe signal intensity with tumor size or histological subtype", "setting": "[5]; histopathology, blinded review", "value": "did not correlate with either tumor size or the histological subtype of lesion"}, {"measurement": "probe signal in hyperplastic polyp (HP)", "setting": "[5]; mouse ID 12201, FIG. 12", "value": "strong signal"}, {"measurement": "probe signal in flat/indeterminate adenoma", "setting": "[5]; mouse ID 12276, FIG. 11", "value": "weaker signal"}, {"measurement": "probe signal in small gross lesion (1-mm in size)", "setting": "[5]; mouse ID 12276, FIG. 11", "value": "very strong probe signal"}, {"measurement": "probe signal in adenoma", "setting": "[5]; mouse ID 12281, FIG. 10", "value": "intermediate signal intensity"}, {"measurement": "probe signal in areas of hyperproliferation (HP)", "setting": "[5]; mouse ID 12281, FIG. 10", "value": "strongest probe signal"}, {"measurement": "probe signal in micro-adenoma compared to surrounding normal colonic mucosa", "setting": "[5]; mouse ID 12281, FIG. 10", "value": "slight increase in signal"}, {"measurement": "background signal in normal colonic mucosa", "setting": "[5]; same dose and same post treatment time interval", "value": "varied between mice receiving the same treatment regimen"}]}
{"substance": "Asn^1-Asp^2-Asp^3-Cys^4-Glu^5-Leu^6-Cys^7-Val^8-Asn^9-Val^10-Ala^11-Cys^12-Thr^13-Gly^14-Cys^15-Leu^16 (NDDCELCVNVACTGCL; disulfide 4-12, 7-15) [Uroguanylin, a physiological ligand of GC-C, a 16 amino acid peptide with two disulfide bonds]", "values": [{"measurement": "affinity for the GC-C receptor", "setting": "GC-C receptor", "value": "nanomolar affinity"}]}
